# Measured values reported in publication PMC5506005, “A novel protein kinase inhibitor IMB-YH-8 with anti-tuberculosis activity” (Scientific Reports, 2017).
# Where two headings read alike, the source gives them in different places.
# Key:
# [1] = test system: intracellular M. tuberculosis H37Rv; test: Intracellular activity assay in infected THP-1 cells (CFU); type: cell-based; conditions: 3 days; for Log10CFU: infected THP-1 cells, mean ± SD, untreated 5.03 ± 0.12
# [2] = target: T1, PknB (Mycobacterium tuberculosis, UniProt P9WI81); test: In vitro protein kinase assay (Kinase Glo), auto-phosphorylation of PknB; type: biochemical, M. tuberculosis; conditions: non-radioactive Kinase Glo assay, 100 μM ATP
# T1 sequence (P9WI81 11-274 limits assumed): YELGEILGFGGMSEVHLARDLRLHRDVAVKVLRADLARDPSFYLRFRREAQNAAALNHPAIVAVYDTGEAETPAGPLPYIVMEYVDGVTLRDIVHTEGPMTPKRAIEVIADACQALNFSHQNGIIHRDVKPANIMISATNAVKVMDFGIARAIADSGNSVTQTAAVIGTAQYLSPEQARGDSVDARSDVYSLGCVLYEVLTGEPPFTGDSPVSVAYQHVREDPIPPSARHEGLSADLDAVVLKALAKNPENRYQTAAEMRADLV
# [3] = target: T2, PknA (Mycobacterium tuberculosis, UniProt P9WI83); test: In vitro protein kinase assay (Kinase Glo), auto-phosphorylation of PknA; type: biochemical, M. tuberculosis
# T2 sequence (P9WI83 1-431): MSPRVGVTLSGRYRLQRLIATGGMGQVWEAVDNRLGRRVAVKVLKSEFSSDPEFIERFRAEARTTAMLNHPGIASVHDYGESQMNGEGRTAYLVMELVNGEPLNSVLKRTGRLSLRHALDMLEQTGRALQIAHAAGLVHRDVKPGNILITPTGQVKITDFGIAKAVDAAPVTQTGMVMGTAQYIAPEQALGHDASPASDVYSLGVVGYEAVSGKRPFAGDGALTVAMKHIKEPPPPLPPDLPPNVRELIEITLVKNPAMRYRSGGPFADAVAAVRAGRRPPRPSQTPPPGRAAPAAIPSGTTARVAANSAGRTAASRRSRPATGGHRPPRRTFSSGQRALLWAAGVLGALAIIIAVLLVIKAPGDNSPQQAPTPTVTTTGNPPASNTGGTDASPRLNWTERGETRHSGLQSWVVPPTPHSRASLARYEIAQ
# [4] = target: PknG (Mycobacterium tuberculosis, UniProt P9WI73); test: In vitro protein kinase assay (Kinase Glo), auto-phosphorylation of PknG; type: biochemical, M. tuberculosis
# [5] = target: PknF (Mycobacterium tuberculosis, UniProt P9WI75); test: In vitro protein kinase assay (Kinase Glo), auto-phosphorylation of PknF; type: biochemical, M. tuberculosis
# [6] = target: PknH (Mycobacterium tuberculosis, UniProt P9WI71); test: In vitro protein kinase assay (Kinase Glo), auto-phosphorylation of PknH; type: biochemical
# [7] = target: human kinase Akt1 (Homo sapiens, UniProt P31749); test: In vitro protein kinase assay (Kinase Glo), auto-phosphorylation of Akt1; type: biochemical
# [8] = target: T1, PknB; test: Phosphorylation of GarA by PknB, Phos-tag SDS-PAGE; type: biochemical, M. tuberculosis; conditions: non-phosphorylated GarA increased in a dose-dependent manner
# Method: In vitro phosphorylation of GarA (5 μM) by PknB (3 μM) was carried out in 50 μl reaction mixture (25 mM Tris-HCl (pH = 7.4), 5 mM MgCl2, 2 mM MnCl2). The reaction was initiated with the additional of 100 μM ATP and incubated at 37 °C for 3 hours. The reaction was terminated with the addition of SDS-PAGE sample buffer and heating the mixture at 100 °C for 5 min. The reaction mixtures were analyzed by 12% SDS-PAGE with or without Phos-tag SDS-PAGE to differentiate the phosphorylated and non-phosphorylated GarA. Phos-tag SDS-PAGE was performed with gel containing 20 μM Phos-tag acrylamide (Wako Pure Chemical Industries, Japan) and 100 µM MnCl2 according to the manufacturer’s instructions. Electrophoresis was performed at 4 °C in Tris-glycine SDS-PAGE running buffer at 30 mA for 2 h. Images were adjusted for contrast and brightness using Bio-Rad image lab software version 2.01.
# [9] = target: T1, PknB; test: Surface plasmon resonance (BIAcore) binding to PknB; set-up: species or system M. tuberculosis; conditions: single cycle kinetics, 1:1 binding model, 25 °C, read-out: Kd for binding to PknB (SPR)
# [10] = target: PknB (Mycobacterium tuberculosis, UniProt P9WI81); test: biochemical; type: binding, M. tuberculosis
# Target sequence in this assay (P9WI81 1-279 limits assumed): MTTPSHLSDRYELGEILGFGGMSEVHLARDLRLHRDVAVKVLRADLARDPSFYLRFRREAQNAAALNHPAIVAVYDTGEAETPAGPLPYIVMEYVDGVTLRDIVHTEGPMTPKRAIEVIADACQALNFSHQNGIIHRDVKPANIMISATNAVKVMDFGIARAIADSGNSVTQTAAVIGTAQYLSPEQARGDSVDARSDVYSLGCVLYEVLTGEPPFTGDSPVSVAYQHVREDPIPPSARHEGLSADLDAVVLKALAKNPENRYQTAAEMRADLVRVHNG
# [11] = test system: M. tuberculosis H37Rv; test: MIC by microplate Alamar blue assay (MABA), H37Rv; type: cell-based; conditions: Mycobacterium tuberculosis
# [12] = test system: clinical isolates of M. tuberculosis; test: microbe, parasite or virus in culture; type: cell-based; conditions: Mycobacterium tuberculosis, clinical isolate 31251, sensitive
# [13] = test system: M. tuberculosis H37Rv; test: Scanning electron microscopy of cell morphology; type: cell-based; conditions: 1 μg/ml for 5 days, SEM
# Method: To determine whether IMB-YH-8 affects the morphology of M. tuberculosis H37Rv, scanning electron microscopy (SEM) was performed. H37Rv was grown to early log phase (optical density at 600 nm, ~0.2). Then 1 μg/ml IMB-YH-8 was added to treat cells, followed by incubation at 37 °C for 5 days. Cells were harvested by low-speed centrifugation and washed in 0.1 M phosphate buffer (pH 7.4). The cells were then fixed in 0.1 M phosphate buffer (pH 7.4) containing 2.5% glutaraldehyde and 0.5% paraformaldehyde. The samples were submitted to the Instrument Center of Institute of Microbiology, Chinese Academy of Sciences for further analysis. Observations were carried out using a SEM (SU8010; Hitachi, Tokyo, Japan). Untreated H37Rv were also processed as control.
# [14] = test system: M. tuberculosis gene transcripts (PknB/SigH regulatory pathways); test: Gene expression by microarray; type: cell-based; conditions: 4 h; for fold induction at 2.5 µg/mL: Mycobacterium tuberculosis; for Regulation: 2.5 μg/ml
# Method: The drug-treated (2.5 μg/ml IMB-YH-8), together with control (DMSO) mycobacterial cultures, were incubated at 37 °C for 4 h. Total RNAs were isolated by RiboPure^TM-Bacteria Kit (Life Technology, AM1925) according to the manufacturer’s instructions. The quantity and quality of each RNA sample was determined using NanoDrop ND-2000 spectrophotometer (Thermo Scientific, Wilmington, DE) and Agilent 2100 Bioanalyzer (Agilent Technologies, Santa Clara, CA).
# The qualified RNA samples were labeled and hybridized on Agilent 4 × 44 K Custom design Gene Expression Microarray according to manufacturer protocol (Agilent, Santa Clara, CA). In brief, 100 ng of each RNA sample was amplified to cRNA and labeled with Cy-3 using Agilent Low Input Quick Amp Labeling Kit. The labeled samples were hybridized for 16 hours at 10 rotations per minute. After hybridization, the arrays were washed and scanned by Agilent scanner and then the image was analyzed by Agilent Feature Extraction v11.5. Data obtained from Feature Extraction were imported to GeneSpring GX version 13.1 (Agilent Technologies, Santa Clara, CA) for 75th percentile shift and baseline to median of all samples normalization.
# [15] = test system: M. tuberculosis H37Rv gene transcripts (PknB/SigH regulatory pathways); type: cell-based; conditions: 2.5 μg/ml, 4 h; for Real-time reverse transcription PCR Normalized ΔCt (mean ± SD): normalized to sigA mRNA
# [16] = test system: THP-1 cells; conditions: calculated as the CC50/MIC (THP-1 / H37Rv)
# [17] = test system: Mycobacterium marinum; set-up: method as in earlier work; conditions: previous high throughput screening study; cited from earlier work
# [18] = test system: Mycobacterium smegmatis; set-up: method as in earlier work; conditions: previous high throughput screening study; cited from earlier work
# [19] = in vitro; conditions: human
# [20] = cited from earlier work
# PknH, sequence (P9WI71 whole entry): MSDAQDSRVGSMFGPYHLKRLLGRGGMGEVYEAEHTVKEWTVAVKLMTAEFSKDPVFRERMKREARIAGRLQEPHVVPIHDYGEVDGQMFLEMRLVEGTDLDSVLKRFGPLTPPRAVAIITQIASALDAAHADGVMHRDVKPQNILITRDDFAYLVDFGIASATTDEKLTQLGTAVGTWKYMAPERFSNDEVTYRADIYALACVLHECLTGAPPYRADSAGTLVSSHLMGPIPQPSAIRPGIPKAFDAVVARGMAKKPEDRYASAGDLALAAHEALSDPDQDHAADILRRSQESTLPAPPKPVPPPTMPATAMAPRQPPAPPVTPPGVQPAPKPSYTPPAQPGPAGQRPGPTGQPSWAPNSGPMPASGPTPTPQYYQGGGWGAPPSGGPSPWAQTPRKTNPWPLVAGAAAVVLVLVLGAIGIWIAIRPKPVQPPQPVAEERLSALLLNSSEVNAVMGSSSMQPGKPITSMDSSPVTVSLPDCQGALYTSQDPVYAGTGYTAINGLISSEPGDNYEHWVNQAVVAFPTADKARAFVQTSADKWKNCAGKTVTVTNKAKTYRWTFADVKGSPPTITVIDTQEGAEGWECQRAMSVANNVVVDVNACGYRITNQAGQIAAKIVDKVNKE
# human kinase Akt1, sequence (P31749 whole entry): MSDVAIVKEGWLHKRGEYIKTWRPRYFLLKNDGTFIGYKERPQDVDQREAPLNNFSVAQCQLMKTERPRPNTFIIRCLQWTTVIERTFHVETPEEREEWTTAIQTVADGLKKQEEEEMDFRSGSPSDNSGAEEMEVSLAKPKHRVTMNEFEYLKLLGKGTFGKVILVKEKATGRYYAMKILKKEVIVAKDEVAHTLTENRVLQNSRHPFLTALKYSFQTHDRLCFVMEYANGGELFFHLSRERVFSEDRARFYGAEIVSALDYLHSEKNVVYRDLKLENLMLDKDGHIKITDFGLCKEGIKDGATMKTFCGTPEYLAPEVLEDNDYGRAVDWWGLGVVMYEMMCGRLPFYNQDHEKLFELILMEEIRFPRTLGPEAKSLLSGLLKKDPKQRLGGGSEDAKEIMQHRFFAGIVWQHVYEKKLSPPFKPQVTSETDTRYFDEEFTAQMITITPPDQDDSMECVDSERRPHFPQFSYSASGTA
# PknG, sequence (P9WI73 whole entry): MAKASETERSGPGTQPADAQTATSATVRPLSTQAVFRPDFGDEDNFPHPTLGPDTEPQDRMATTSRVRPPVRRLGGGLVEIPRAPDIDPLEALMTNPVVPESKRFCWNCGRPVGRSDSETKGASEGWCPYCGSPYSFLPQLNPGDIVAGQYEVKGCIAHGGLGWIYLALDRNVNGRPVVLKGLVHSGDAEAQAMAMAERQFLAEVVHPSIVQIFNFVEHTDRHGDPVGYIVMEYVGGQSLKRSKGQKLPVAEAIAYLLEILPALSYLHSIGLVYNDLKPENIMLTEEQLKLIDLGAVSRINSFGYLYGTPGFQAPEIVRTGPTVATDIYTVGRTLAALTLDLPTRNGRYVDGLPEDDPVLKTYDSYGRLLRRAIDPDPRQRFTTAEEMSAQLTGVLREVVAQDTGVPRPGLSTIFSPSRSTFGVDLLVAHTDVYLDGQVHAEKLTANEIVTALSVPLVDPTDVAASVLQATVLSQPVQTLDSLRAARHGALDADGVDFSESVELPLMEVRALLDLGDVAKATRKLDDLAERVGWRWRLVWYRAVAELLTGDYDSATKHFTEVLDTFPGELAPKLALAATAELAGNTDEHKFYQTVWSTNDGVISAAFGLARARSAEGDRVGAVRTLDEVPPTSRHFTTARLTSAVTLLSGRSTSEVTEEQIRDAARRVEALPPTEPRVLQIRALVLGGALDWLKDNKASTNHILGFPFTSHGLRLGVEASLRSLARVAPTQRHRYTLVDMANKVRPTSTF
# PknF, sequence (P9WI75 whole entry): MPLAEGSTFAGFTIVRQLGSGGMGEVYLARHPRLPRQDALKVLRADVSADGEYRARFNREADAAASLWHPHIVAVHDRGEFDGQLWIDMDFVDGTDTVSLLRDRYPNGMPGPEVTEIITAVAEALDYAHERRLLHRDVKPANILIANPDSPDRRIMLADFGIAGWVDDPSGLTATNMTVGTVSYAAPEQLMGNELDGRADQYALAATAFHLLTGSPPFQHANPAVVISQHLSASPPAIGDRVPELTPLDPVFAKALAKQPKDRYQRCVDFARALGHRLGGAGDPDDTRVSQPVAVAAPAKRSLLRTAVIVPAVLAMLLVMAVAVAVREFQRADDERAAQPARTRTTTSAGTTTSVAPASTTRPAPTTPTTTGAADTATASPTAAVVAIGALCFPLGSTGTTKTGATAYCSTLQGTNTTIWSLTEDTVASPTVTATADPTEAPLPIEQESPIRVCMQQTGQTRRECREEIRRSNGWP
smiles,measurement,setting,value
"NNC(=O)c1ccncc1 [INH, isoniazid, reference compound]",Log10CFU,[1]; 0.5 μg/ml,3.24 ± 0.05
same,Log10CFU,[1]; 1 μg/ml,3.14 ± 0.06
same,Log10CFU,[1]; 2 μg/ml,2.57 ± 0.14
COC(=O)/C=C/C(=O)c1ccc(OC)cc1 [IMB-YH-8],IC50,[2],20.2 µM
same,IC50,[3],44.3 µM
same,IC50,[4],349 µM
same,IC50,[5],503 µM
same,IC50,[6],> 640 µM
same,IC50,[7],> 640 µM
same,PknB-catalyzed phosphorylation of GarA,[8],inhibited
same,Kd,[9],25.3 µM
same,Kd,[10],13.5 µM
same,ΔG of binding to PknB,"[10]; ITC, 25 °C",-6.64 kcal/mol
same,ΔH of binding to PknB,"[10]; ITC, 25 °C",-5.7 kcal/mol
same,−TΔS of binding to PknB,"[10]; ITC, 25 °C",-0.94 kcal/mol
same,MIC,[11],0.25 µg/mL
same,MIC,[11]; converted from 0.25 μg/ml,1.14 µM
same,MIC,[12],0.25 µg/mL
same,reduction in CFU compared to untreated control,[1]; 0.5 µg/ml,0.18 log10
same,Log10CFU,[1]; 0.5 μg/ml,4.85 ± 0.04
same,reduction in CFU compared to untreated control,[1]; 1 µg/ml,0.62 log10
same,Log10CFU,[1]; 1 μg/ml,4.41 ± 0.12
same,reduction in CFU compared to untreated control,[1]; 2 µg/ml,1.11 log10
same,Log10CFU,[1]; 2 μg/ml,3.92 ± 0.11
same,proportion of ruptured cells,[13],61.5%
same,fold induction at 2.5 µg/mL,"[14]; read-out: Fold induction in microarray (mean ± SD), gene Rv2466c, 2.5 μg/ml",6.86 ± 1.93
same,fold induction at 2.5 µg/mL,"[14]; read-out: Fold induction in microarray (mean ± SD), gene rshA (Rv3221A), 2.5 μg/ml",6.07 ± 0.33
same,fold induction at 2.5 µg/mL,"[14]; read-out: Fold induction in microarray (mean ± SD), gene sigH (Rv3223c), 2.5 μg/ml",2.92 ± 0.09
same,fold induction at 2.5 µg/mL,"[14]; read-out: Fold induction in microarray (mean ± SD), gene trxB2 (Rv3913), 2.5 μg/ml",6.9 ± 0.75
same,fold induction at 2.5 µg/mL,"[14]; read-out: Fold induction in microarray (mean ± SD), gene trxC (Rv3914), 2.5 μg/ml",8.03 ± 0.33
same,Regulation,[14]; gene Rv2466c,Up
same,Regulation,[14]; gene rshA (Rv3221A),Up
same,Regulation,[14]; gene sigH (Rv3223c),Up
same,Regulation,[14]; gene trxB2 (Rv3913),Up
same,Regulation,[14]; gene trxC (Rv3914),Up
same,Real-time reverse transcription PCR Normalized ΔCt (mean ± SD),[15]; gene Rv2466c,6.325 ± 2.51
same,Real-time reverse transcription PCR Mean fold change (2^ΔΔCt Value),[15]; gene rshA (Rv3221A),264.11
same,Real-time reverse transcription PCR Normalized ΔCt (mean ± SD),[15]; gene rshA (Rv3221A),8.045 ± 0.59
same,Real-time reverse transcription PCR Mean fold change (2^ΔΔCt Value),[15]; gene sigH (Rv3223c),5.88
same,Real-time reverse transcription PCR Normalized ΔCt (mean ± SD),[15]; gene sigH (Rv3223c),2.555 ± 0.11
same,Real-time reverse transcription PCR Mean fold change (2^ΔΔCt Value),[15]; gene trxB2 (Rv3913),7.67
same,Real-time reverse transcription PCR Normalized ΔCt (mean ± SD),[15]; gene trxB2 (Rv3913),2.940 ± 0.07
same,Real-time reverse transcription PCR Mean fold change (2^ΔΔCt Value),[15]; gene trxC (Rv3914),5.48
same,Real-time reverse transcription PCR Normalized ΔCt (mean ± SD),[15]; gene trxC (Rv3914),2.455 ± 0.06
same,"SI, selectivity index",[16],30.4
same,inhibition of Mycobacterium marinum,[17],inhibited
same,inhibition of Mycobacterium smegmatis,[18],inhibited
same,CC50 at 48 h,[19],7.61 µg/mL
same,time until serum concentrations fall below the therapeutic range,[20]; oral delivery of 200 mg/kg,less than 1 hour
same,serum Cmax,"[20]; rat, in vivo, po, 200 mg/kg",sub-microgram/ml
